US9145415B2, “Nitrogen-containing heterocyclic compound or salt thereof” (FUJIFILM Corporation, priority 2012, dated 2015)
Where two headings read alike, the source gives them in different places.

Columns and labels:
[1] = target: T1, human FLT3 protein (FLT3 (WT)) (Homo sapiens, UniProt P36888); test: FLT3 inhibition test (FLT3 enzyme inhibition, time-resolved fluorescence of substrate peptide phosphorylation); assay type: biochemical; conditions: read-out: FLT3 (WT) enzyme inhibition activity
T1 construct: human FLT3 protein (intracellular region, 564 to 993 aa); GST; purchased Carna Biosciences; host or cells: baculovirus expression system
T1 sequence (P36888 564-993): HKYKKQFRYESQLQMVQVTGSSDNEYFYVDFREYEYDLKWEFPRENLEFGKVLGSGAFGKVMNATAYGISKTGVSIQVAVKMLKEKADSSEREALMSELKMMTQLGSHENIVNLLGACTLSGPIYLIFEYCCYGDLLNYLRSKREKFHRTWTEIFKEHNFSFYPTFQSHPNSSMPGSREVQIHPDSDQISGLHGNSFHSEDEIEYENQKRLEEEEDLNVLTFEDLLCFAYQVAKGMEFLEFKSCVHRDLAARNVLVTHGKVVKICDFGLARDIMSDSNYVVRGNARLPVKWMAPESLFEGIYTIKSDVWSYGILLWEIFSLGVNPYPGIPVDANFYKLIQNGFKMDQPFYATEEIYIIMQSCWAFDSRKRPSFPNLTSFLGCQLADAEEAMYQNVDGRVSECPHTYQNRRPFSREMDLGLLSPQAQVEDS
Procedure, shortened: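 Wild-type human FLT3 (1.2 μg) pre-incubated with compound 15 min at 25° C in 100 mM HEPES pH 7.5, 10 mM MgCl2, 25 mM NaCl, 1 mM DTT. Reaction started with substrate peptide and ATP (final 50 μM), run 30 min at 25° C; phosphorylation read by time-resolved fluorescence.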

[2] = system: MV4-11 cells; test: Leukemia cell proliferation inhibition test (ATPlite), MV4-11; assay type: cell-based; conditions: Homo sapiens, read-out: MV4-11 cell proliferation inhibition effect
Procedure, shortened: (§1)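 Proliferation inhibition is quantified from total cellular ATP, measured by luciferase luminescence, after cells grow with compound for 72 hours. The GI50 is the concentration giving half the signal of the 0.1% DMSO control, fitted to a sigmoid curve from duplicate points.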

[3] = system: Molm-13 cells; test: Leukemia cell proliferation inhibition test (ATPlite), Molm-13; assay type: cell-based; conditions: Homo sapiens, read-out: MOLM13 cell proliferation inhibition effect
Procedure, shortened: as §1

[4] = GST-fused human FLT3 (564 to 993 aa), ATP 50 μM
[5] = MV4-11, 72 h, MV4-11, 72 hours culture, ATPlite, GI50 per method
[6] = MOLM-13, 72 h, Molm-13, 72 hours culture, ATPlite, GI50 per method

Compound: CCCNc1nc(Nc2cccc(OC(F)F)c2)ncc1C#CCCCNC(=O)[C@H](C)N(C)C(=O)/C=C/CN(C)C [Compound 9-28]
- IC50 [1, 4]: < 10 nM
- IC50 [2, 5]: < 10 nM
- IC50 [3, 6]: < 10 nM

Compound: C[C@@H](C(=O)NCCCC#Cc1cnc(Nc2ccc(C#N)cc2)nc1-n1nccn1)N(C)C(=O)/C=C/CN(C)C [Compound 20-3]
- IC50 [1, 4]: 10 to 100 nM
- IC50 [2, 5]: < 10 nM
- IC50 [3, 6]: < 10 nM

Compound: C[C@@H](C(=O)NCCCC#Cc1cnc(Nc2ccc(C#N)cc2)nc1NCCCF)N(C)C(=O)/C=C/CN(C)C [Compound 10-29]
- IC50 [1, 4]: < 10 nM
- IC50 [2, 5]: < 10 nM
- IC50 [3, 6]: < 10 nM

Compound: CCCNc1nc(Nc2cccc(F)c2)ncc1C#C[C@H]1CCCC(NC(=O)[C@H](C)N(C)C(=O)/C=C/CN(C)C)C1 (stereo in doubt) [Compound 13-2, (E)-4-(dimethylamino)-N—((S)-1-(((1R,3S)-3-((2-((3-fluorophenyl)amino)-4-(propylamino)pyrimidin-5-yl)ethynyl)cyclohexyl)amino)-1-oxopropan-2-yl)-N-methyl-2-butenamide]
- IC50 [1, 4]: < 10 nM
- IC50 [2, 5]: 10 to 100 nM
- IC50 [3, 6]: 10 to 100 nM

Compound: CNc1nc(Nc2ccc(F)cc2)ncc1C#CCCCNC(=O)[C@H](C)N(C)C(=O)/C=C/CN(C)C [Compound 21-51]
- IC50 ([1]; FLT3 (WT)): < 10 nM
- IC50 ([2]; MV4-11, MV4-11 cell): < 10 nM
- IC50 ([3]; MOLM-13, MOLM13 cell): < 10 nM

Compound: CCCNc1cc(Nc2cccc(F)c2)ncc1C(=O)Nc1cccc(NC(=O)[C@H](C)N(C)C(=O)/C=C/CN(C)C)c1 [Compound 18-2, (S,E)-N-(3-(2-(4-(dimethylamino)-N-methyl-2-butenamido)propanamido)phenyl)-6-((3-fluorophenyl)amino)-4-(propylamino)nicotinamide]
- IC50 [1, 4]: < 10 nM
- IC50 [2, 5]: < 10 nM
- IC50 [3, 6]: 10 to 100 nM

Compound: CCCNc1nc(Nc2ccnc(F)c2)ncc1C#C[C@H]1C[C@@H](NC(=O)[C@H](C)N(C)C(=O)/C=C/CN(C)C)C1 (relative stereo) [Compound 14-4, (E)-4-(Dimethylamino)-N—((S)-1-(((1S*,3R*)-3-((2-((2-fluoropyridin-4-yl)amino)-4-(propylamino)pyrimidin-5-yl)ethynyl)cyclobutyl)amino)-1-oxopropan-2-yl)-N-methyl-2-butenamide]
- IC50 [1, 4]: < 10 nM
- IC50 [2, 5]: < 10 nM
- IC50 [3, 6]: < 10 nM

Compound: C=CC(=O)N1CCC(NC(=O)c2cnc(NCCc3ccncc3)nc2NCCC)C1 (stereo not drawn) [Compound 6-16]
- IC50 [1, 4]: 10 to 100 nM
- IC50 [2, 5]: 100 to 1000 nM
- IC50 [3, 6]: 10 to 100 nM

Compound: C[C@@H](C(=O)NCCCC#Cc1cnc(Nc2ccc(C#N)cc2)nc1N1CCC(F)(F)C1)N(C)C(=O)/C=C/CN(C)C [Compound 10-42]
- IC50 [1, 4]: < 10 nM
- IC50 [2, 5]: < 10 nM
- IC50 [3, 6]: < 10 nM

Compound: CCCNc1nc(Nc2ccc3cn[nH]c3c2)ncc1C#CCCCNC(=O)[C@H](C)N(C)C(=O)/C=C/CN(C)C [Compound 21-53, (S,E)-N-(1-((5-(2-((1H-indazol-6-yl)amino)-4-(propylamino)pyrimidin-5-yl)-4-pentyn-1-yl)amino)-1-oxopropan-2-yl)-4-(dimethylamino)-N-methyl-2-butenamide]
- IC50 ([1]; FLT3 (WT)): < 10 nM
- IC50 ([2]; MV4-11, MV4-11 cell): < 10 nM
- IC50 ([3]; MOLM-13, MOLM13 cell): < 10 nM

Compound: CCCNc1nc(Nc2ccc3c(OC)nn(C)c3c2)ncc1C#CCCCNC(=O)[C@@H]1CCCN1C(=O)/C=C/CN(C)C [Compound 22-42]
- IC50 ([1]; FLT3 (WT)): < 10 nM
- IC50 ([2]; MV4-11, MV4-11 cell): < 10 nM
- IC50 ([3]; MOLM-13, MOLM13 cell): < 10 nM

Compound: C[C@@H](C(=O)NCCCC#Cc1cnc(Nc2ccc(C#N)cc2)nc1NC1CC1)N(C)C(=O)/C=C/CN(C)C [Compound 10-25]
- IC50 [1, 4]: < 10 nM
- IC50 [2, 5]: < 10 nM
- IC50 [3, 6]: < 10 nM

Compound: CCCN(C)c1nc(Nc2cccc(C#N)c2)ncc1C#CCCCNC(=O)[C@H](C)N(C)C(=O)/C=C/CN(C)C [Compound 9-3]
- IC50 [1, 4]: < 10 nM
- IC50 [2, 5]: < 10 nM
- IC50 [3, 6]: 10 to 100 nM

Compound: CCCNc1nc(Nc2ccc(C(N)=O)cc2)ncc1C(=O)Nc1cccc(NC2CCN(C(=O)/C=C/CN(C)C)C2)c1 (stereo not drawn) [Compound 3-20]
- IC50 [1, 4]: < 10 nM
- IC50 [2, 5]: 10 to 100 nM
- IC50 [3, 6]: 100 to 1000 nM

Compound: CCCNc1nc(Nc2cnc3[nH]nc(C)c3c2)ncc1C#CCCCNC(=O)[C@@H]1CCCN1C(=O)/C=C/CN(C)C [Compound 22-56, (S,E)-1-(4-(Dimethylamino)-2-butenoyl)-N-(5-(2-((3-methyl-1H-pyrazolo[3,4-b]pyridin-5-yl)amino)-4-(propylamino)pyrimidin-5-yl)-4-pentyn-1-yl)pyrrolidine-2-carboxamide]
- IC50 ([1]; FLT3 (WT)): < 10 nM
- IC50 ([2]; MV4-11, MV4-11 cell): < 10 nM
- IC50 ([3]; MOLM-13, MOLM13 cell): < 10 nM

Compound: CNc1nc(Nc2ccc(F)cc2)ncc1C#CCCCNC(=O)[C@@H]1C[C@H](OC)CN1C(=O)/C=C/CN(C)C [Compound 7-82]
- IC50 [1, 4]: < 10 nM
- IC50 [2, 5]: < 10 nM
- IC50 [3, 6]: < 10 nM

Compound: C=CC(=O)NCC(=O)NC1CCCC(NC(=O)c2cnc(Nc3ccc(C(N)=O)cc3)nc2NCCC)C1 (stereo not drawn) [Compound 3-2]
- IC50 [1, 4]: < 10 nM
- IC50 [2, 5]: 10 to 100 nM
- IC50 [3, 6]: 10 to 100 nM

Compound: C=CC(=O)N(C)CC(=O)NCCCNC(=O)c1cnc(Nc2ccc(C(N)=O)cc2)nc1NCCC [Compound 5-2]
- IC50 [1, 4]: < 10 nM
- IC50 [2, 5]: 10 to 100 nM
- IC50 [3, 6]: 10 to 100 nM

Compound: C[C@@H](C(=O)NCCCC#Cc1cnc(Nc2cccc(F)c2)nc1NCCc1cccs1)N(C)C(=O)/C=C/CN(C)C [Compound 10-9]
- IC50 [1, 4]: < 10 nM
- IC50 [2, 5]: 10 to 100 nM
- IC50 [3, 6]: 10 to 100 nM

Compound: CCCNc1nc(Nc2cccc(F)c2)ncc1C#CCCCNC(=O)[C@H](CC(C)C)N(C)C(=O)/C=C/CN(C)C [Compound 7-11]
- IC50 [1, 4]: < 10 nM
- IC50 [2, 5]: 10 to 100 nM
- IC50 [3, 6]: 10 to 100 nM

Compound: CCCNc1nc(Nc2cccc(F)c2)ncc1-c1cc(CCNC(=O)[C@H](C)N(C)C(=O)/C=C/CN(C)C)on1 [Compound 17-3, (S,E)-4-(dimethylamino)-N-(1-((2-(3-(2-((3-fluorophenyl)amino)-4-(propylamino)pyrimidin-5-yl)isoxazol-5-yl)ethyl)amino)-1-oxopropan-2-yl)-N-methyl-2-butenamide]
- IC50 [1, 4]: < 10 nM
- IC50 [2, 5]: 10 to 100 nM
- IC50 [3, 6]: 10 to 100 nM

Compound: C=CC(=O)Nc1cccc(CNC(=O)c2cnc(NCCc3ccncc3)nc2NCCC)c1 [Compound 2-26]
- IC50 [1, 4]: 10 to 100 nM
- IC50 [2, 5]: 100 to 1000 nM
- IC50 [3, 6]: 100 to 1000 nM

Compound: CCCNc1nc(Nc2ccc3c(c2)c(OC)nn3CCOC)ncc1C#CCCCNC(=O)[C@H](C)N(C)C(=O)/C=C/CN(C)C [Compound 22-14]
- IC50 ([1]; FLT3 (WT)): < 10 nM
- IC50 ([2]; MV4-11, MV4-11 cell): < 10 nM
- IC50 ([3]; MOLM-13, MOLM13 cell): < 10 nM

Compound: CNc1nc(Nc2cccc(F)c2)ncc1C#CCCCNC(=O)[C@@H]1C[C@H](F)CN1C(=O)/C=C/CN(C)C [Compound 7-72, (2S,4S)-1-((E)-4-(Dimethylamino)-2-butenoyl)-4-fluoro-N-(5-(2-((3-fluorophenyl)amino)-4-(methylamino)pyrimidin-5-yl)-4-pentyn-1-yl)pyrrolidine-2-carboxamide]
- IC50 [1, 4]: < 10 nM
- IC50 [2, 5]: < 10 nM
- IC50 [3, 6]: < 10 nM

Compound: CCCNc1nc(Nc2ccc(C#N)cc2)ncc1C#CCCCNC(=O)[C@H]1CCCCN1C(=O)/C=C/CN(C)C [Compound 7-38]
- IC50 [1, 4]: < 10 nM
- IC50 [2, 5]: 10 to 100 nM
- IC50 [3, 6]: 10 to 100 nM

Compound: CNc1nc(Nc2cccc(F)c2)ncc1C#CCCCNC(=O)[C@@H]1C[C@H](OC)CN1C(=O)/C=C/CN(C)C [Compound 7-73, (2S,4S)-1-((E)-4-(Dimethylamino)-2-butenoyl)-N-(5-(2-((3-fluorophenyl)amino)-4-(methylamino)pyrimidin-5-yl)-4-pentyn-1-yl)-4-methoxypyrrolidine-2-carboxamide]
- IC50 [1, 4]: < 10 nM
- IC50 [2, 5]: < 10 nM
- IC50 [3, 6]: < 10 nM

Compound: CNc1nc(Nc2cccc(C#N)c2)ncc1C#CCCCNC(=O)[C@@H]1CCCN1C(=O)/C=C/CN(C)C [Compound 7-76]
- IC50 [1, 4]: < 10 nM
- IC50 [2, 5]: < 10 nM
- IC50 [3, 6]: < 10 nM

Compound: CC(C)Oc1nc(Nc2cccc(F)c2)ncc1C#C[C@@H]1CCC[C@H](NC(=O)[C@H](C)N(C)C(=O)/C=C/CN(C)C)C1 [Compound 21-21]
- IC50 [1, 4]: < 10 nM
- IC50 [2, 5]: < 10 nM
- IC50 [3, 6]: < 10 nM

Compound: C[C@@H](C(=O)NCCCC#Cc1cnc(Nc2ccc(C#N)cc2)nc1-c1ccccc1)N(C)C(=O)/C=C/CN(C)C [Compound 20-1, (S,E)-N-(1-((5-(2-((4-cyanophenyl)amino)-4-phenylpyrimidin-5-yl)-4-pentyn-1-yl)amino)-1-oxopropan-2-yl)-4-(dimethylamino)-N-methyl-2-butenamide]
- IC50 [1, 4]: 10 to 100 nM
- IC50 [2, 5]: < 10 nM
- IC50 [3, 6]: < 10 nM
